The results in this text go back to patent US20230190778A1, “COMPOSITION COMPRISING GLUCOSE OLIGOSACCHARIDE AND PROCESS FOR MAKING THE SAME AND USE THEREOF” (CARGILL, INCORPORATED, priority 2020, published 2023).

Data set [1] relates to chicken macrophage-like cell line HD11. Kind of data set: Nitric oxide (NO)-production assay (Griess). Type of data set: cell-based. Conditions: HD11 cells. On the procedure: A nitric oxide production assay using chicken macrophage-like cell line HD11, as also described by Biggelaar et al., Vaccines 2020, 8(2), 332, was carried out to compare immune responses in terms of NO production of the glucose-oligosaccharide according to Example 1 and a prior art glucose-oligosaccharide fibre according to Example 2.
To obtain a standard NO calibration curve, the Griess assay was used as described by Biggelaar et al.
On day 1 HD11 cell were seeded, day 2 compounds were added at different concentrations i.e. at 10 ppm, 50 ppm and 100 ppm. […] Compounds were tested in triplicate per NO assay i.e. in total 3 series of NO assays were performed per compound per concentration.
(NB: Negative output implies zero NO production. Negative values arise due to the calculation based on the standard NO calibration curve. Negative output can be seen as 0 NO production.)
On the technique in general: The Griess reaction detects nitrite, a stable product of nitric oxide.

Data set [2] deals with developing embryos (unhatched chicks). Kind of data set: In ovo trial (hatchability / safety). The data set is classed as in vivo, chicken. Conditions: 1 mL injected in ovo at 17 days of incubation; at up to just 0.006 mg; FIG. 4. On the procedure: The trials were thus carried out to indicate safety of the compound according to the invention in animals In this case, a comparison was made with Example 3, a commercially available conjugated linoleic acid (CLA). It is known that CLA may modulate the immune system.
480 eggs we incubated under standard conditions. They were divided unto 8 groups of 10 eggs replicated 6 times. At 17 days of incubation eggs were injected with 1 mL of the respective solution of Example 1 and Example 3 at increasing concentrations. The intention was to deliver into the amniotic fluid to be orally consumed and digested by the developing embryos according to the method described by (Uni et al., 2005, Poult Sci 84:764-770). At day of hatch, hatched chicks as well as remaining non-hatched eggs were counted and % hatchability was calculated to indicate safety of injected materials by not causing mortality.

On to Lipopolysaccharide [LPS], for which, in data set [1], the “NO production (positive control)” value is reported as “high NO production”.

As for conjugated linoleic acid [Example 3], the hatchability result in data set [2] is “Not all of the chicks hatched”.
